Assay results published in patent US10143666B2, “Small molecule inhibitors targeting CAG-repeat RNA toxicity in polyglutamine diseases” (The Chinese University of Hong Kong, priority 2015, dated 2018).
“And” between values parts separate entries of the source, which are not always exact repeats. Identical values can stand only once.

Key:
[1] = system: primary rat cortical neurons; test: Cytotoxicity test on primary rat cortical neurons; assay type: cell-based
Text: To address the specificity of DB213 on expanded CAG-repeat RNA toxicity in vitro, another small molecule compound, C4G2, labeled as ligand 3 in the study^17, was employed.

[2] = mouse, in vivo, iv, 50 mg/kg
Procedure: Body temperature was measured from rectum on day 1 (baseline), and on days 3, 5 and 7.
Body temperature was measured from rectum on day 1 (baseline) and on days 3, 5 and 7.

[3] = Body weight in R6/2 mice; details: for Body weight (individual mouse): in g (unit assumed); for Body weight, differences between treatment groups: any time point, p>0.05
Procedure: The body weights were measured daily.

Compound: CN(C)CCCNC(=N)c1ccc(C(=N)NCCCN(C)C)cc1.Cl.Cl.Cl.Cl [DB213]
- No observed cytotoxicity up to ([1]; cellular toxicity): up to 12.8 μM
- Concentration up to which viability of wild-type primary neurons was not compromised ([1]; primary rat cortical neurons): up to 12,800 nM
- Body temperature (group Mean) [2]: 37.5
- Body weight (individual mouse) ([3]; i.n. daily 50 mg/kg, Day 1, listed as Compound-5, 50 mg/kg): 20.9 and 20 and 23.9
- Body weight (group Mean) ([3]; i.n. daily 50 mg/kg, Day 2): 21.1 g
- Body weight (individual mouse) ([3]; i.n. daily 50 mg/kg, Day 2, listed as Compound-5, 50 mg/kg): 20.6 and 17.9 and 17.5 and 25.3
- Body weight (individual mouse) ([3]; i.n. daily 50 mg/kg, Day 3, listed as Compound-5, 50 mg/kg): 21.1 and 24 and 26.3
- Body weight (group Mean) ([3]; i.n. daily 50 mg/kg, Day 4): 22 g
- Body weight (individual mouse) ([3]; i.n. daily 50 mg/kg, Day 4, listed as Compound-5, 50 mg/kg): 20.1 and 26.3
- Body weight (individual mouse) ([3]; i.n. daily 50 mg/kg, Day 5, listed as Compound-5, 50 mg/kg): 19.9 and 17.4 and 23.6 and 20.7 and 25.6
- Body weight (group Mean) ([3]; i.n. daily 50 mg/kg, Day 6): 21.5 g
- Body weight (individual mouse) ([3]; i.n. daily 50 mg/kg, Day 6, listed as Compound-5, 50 mg/kg): 19.9 and 17.6 and 21.5 and 25
- Body weight (individual mouse) ([3]; i.n. daily 50 mg/kg, Day 7, listed as Compound-5, 50 mg/kg): 20.4 and 17.9 and 23.5 and 21.5 and 26.3
- Body weight (individual mouse) ([3]; i.n. daily 100 mg/kg, Day 1, listed as Compound-5, 100 mg/kg): 19 and 20.6 and 23.5 and 23.2 and 23.7
- Body weight (group Mean) ([3]; i.n. daily 100 mg/kg, Day 2): 21 g
- Body weight (individual mouse) ([3]; i.n. daily 100 mg/kg, Day 2, listed as Compound-5, 100 mg/kg): 20.3 and 19.2 and 23.2 and 20.7 and 23.6
- Body weight (individual mouse) ([3]; i.n. daily 100 mg/kg, Day 3, listed as Compound-5, 100 mg/kg): 19.3 and 20.7 and 19.8 and 23.9 and 21.1
- Body weight (group Mean) ([3]; i.n. daily 100 mg/kg, Day 4): 21.6 g
- Body weight (individual mouse) ([3]; i.n. daily 100 mg/kg, Day 4, listed as Compound-5, 100 mg/kg): 19.4 and 19.8 and 24 and 21.1 and 24.4
- Body weight (individual mouse) ([3]; i.n. daily 100 mg/kg, Day 5, listed as Compound-5, 100 mg/kg): 20.6 and 19.4 and 23.6 and 20.7 and 23.9
- Body weight (group Mean) ([3]; i.n. daily 100 mg/kg, Day 6): 21.5 g
- Body weight (individual mouse) ([3]; i.n. daily 100 mg/kg, Day 6, listed as Compound-5, 100 mg/kg): 19.8 and 23.6 and 21.1 and 24
- Body weight (group Mean) ([3]; i.n. daily 100 mg/kg, Day 7): 21.1 g
- Body weight (individual mouse) ([3]; i.n. daily 100 mg/kg, Day 7, listed as Compound-5, 100 mg/kg): 19 and 19.4 and 24.7
- Body weight (group Mean) ([3]; i.n. daily 200 mg/kg, Day 1): 20.9 g
- Body weight (individual mouse) ([3]; i.n. daily 200 mg/kg, Day 1, listed as Compound-5, 200 mg/kg): 19.9 and 23.6
- Body weight (individual mouse) ([3]; i.n. daily 200 mg/kg, Day 2, listed as Compound-5, 200 mg/kg): 23.5
- Body weight (group Mean) ([3]; i.n. daily 200 mg/kg, Day 3): 20.4 g
- Body weight (individual mouse) ([3]; i.n. daily 200 mg/kg, Day 3, listed as Compound-5, 200 mg/kg): 18.3 and 19.2 and 21.5
- Body weight (individual mouse) ([3]; i.n. daily 200 mg/kg, Day 4, listed as Compound-5, 200 mg/kg): 17.9 and 19
- Body weight (group Mean) ([3]; i.n. daily 200 mg/kg, Day 5): 20.7 g
- Body weight (individual mouse) ([3]; i.n. daily 200 mg/kg, Day 5, listed as Compound-5, 200 mg/kg): 18.2 and 18.3 and 22.7
- Body weight (individual mouse) ([3]; i.n. daily 200 mg/kg, Day 6, listed as Compound-5, 200 mg/kg): 18.4 and 23.1
- Body weight (group Mean) ([3]; i.n. daily 200 mg/kg, Day 7): 20.4 g
- Body weight (group Mean) ([3]; i.n. daily 300 mg/kg, Day 1): 21.6 g
- Body weight (group Mean) ([3]; i.n. daily 300 mg/kg, Day 2): 20.2 g
- Body weight (group Mean) ([3]; i.n. daily 300 mg/kg, Day 3): 19.5 g
- Body weight (group Mean) ([3]; i.n. daily 300 mg/kg, Day 6): 20.1 g
- Body weight (group Mean) ([3]; i.n. daily 300 mg/kg, Day 7): 20.4 g
- Body weight, differences between treatment groups ([3]; i.n. daily 50-300 mg/kg): no differences in body weight
- Body weight (group Mean) ([3]; i.v. 50 mg/kg (treatment discontinued), Day 2, n 1): 16.1 g
- Body weight (group Mean) ([3]; i.v. 50 mg/kg (treatment discontinued), Day 3, n 1): 16.3 g
- Body weight (group Mean) ([3]; i.v. 50 mg/kg (treatment discontinued), Day 4, n 1): 16.2 g
- Body weight (group Mean) ([3]; i.v. 50 mg/kg (treatment discontinued), Day 5, n 1): 16.8 g
- Body weight (group Mean) ([3]; i.v. 50 mg/kg (treatment discontinued), Day 6 (not measured, replaced by mean of days 5 and 7), n 1): 16.8 g
- Body weight (group Mean) ([3]; i.v. 50 mg/kg (treatment discontinued), Day 7, n 1): 16.8 g
- Body weight (group Mean) ([3]; i.v. twice-a-week 12.5 mg/kg, Day 3): 22 g
- Body weight (group Mean) ([3]; i.v. twice-a-week 12.5 mg/kg, Day 4): 22 g
- Body weight (group Mean) ([3]; i.v. twice-a-week 12.5 mg/kg, Day 6 (not measured, replaced by mean of days 5 and 7)): 22.4 g
- Body weight (group Mean) ([3]; i.v. twice-a-week 12.5 mg/kg, Day 7): 22.6 g
- Body weight (group Mean) ([3]; i.v. twice-a-week 25 mg/kg, Day 2): 21 g
- Body weight (group Mean) ([3]; i.v. twice-a-week 25 mg/kg, Day 3): 21.6 g
- Body weight (group Mean) ([3]; i.v. twice-a-week 25 mg/kg, Day 4): 21.6 g
- Body weight (group Mean) ([3]; i.v. twice-a-week 25 mg/kg, Day 7): 22 g
- Body weight, differences between treatment groups ([3]; i.v. twice-a-week 12.5 and 25 mg/kg): no differences in body weight
